The text below walks through data of PMC4491819, “Specificity and catalysis hardwired at the RNA–protein interface in a translational proofreading enzyme” (Nature Communications, 2015).

By stoichiometry N is commonly meant the number of molecules, sites or subunits per partner or assembly. Usually Kd stands for the constant that tells how readily two partners part at equilibrium. A lower Kd goes with tighter binding.

The target of data set [1] is N-terminal editing domain (NTD) of threonyl-tRNA synthetase from Aeropyrum pernix (Aeropyrum pernix). The data set can be described thus: crystal structure; co-crystals with the substrate analogues L-Ser3AA or L-Thr3AA, grown at 4 °C; ApNTD in P4(1)2(1)2 with one monomer in the asymmetric unit (dimer by the crystallographic twofold); MjNTD in C2 and P2(1) with six and four monomers in the asymmetric unit.

Data set [2] addresses T1, ApNTD (Aeropyrum pernix, UniProt Q9YFY3, K116M).
T1 construct: gene thrS2; N-terminal editing domain, residues 1-136 of ThrRS-2, untagged, expressed in E. coli, homodimer
Kind of data set: X-ray crystal structure. The class given is binding. The following applies: editing (amino-acid/adenosine) pocket.

The target in the next data set is T2, PabNTD (Pyrococcus abyssi, UniProt Q9UZ14, K121M).
T2 construct: gene thrS; N-terminal editing domain, residues 1-143 of ThrRS, untagged, expressed in E. coli, homodimer; all rows are K121M
Kind of data set: X-ray crystal structure. The format is binding. The following applies: editing (amino-acid/adenosine) pocket.

Data set [3] concerns the target T3, ApNTD (Aeropyrum pernix, UniProt Q9YFY3, E129A).
T3 construct: gene thrS2; N-terminal editing domain, residues 1-136 of ThrRS-2, untagged, expressed in E. coli, homodimer
Kind of data set: X-ray crystal structure. The format is binding. The following applies: editing (amino-acid/adenosine) pocket.

For data set [4], the target named is T4, ApNTD (Aeropyrum pernix, UniProt Q9YFY3, Y115A).
T4 construct: gene thrS2; N-terminal editing domain, residues 1-136 of ThrRS-2, untagged, expressed in E. coli, homodimer
Kind of data set: X-ray crystal structure. The class given is binding. As to conditions: editing (amino-acid/adenosine) pocket.

In data set [5] the target is T5, ApNTD (Aeropyrum pernix, UniProt Q9YFY3).
T5 construct: gene thrS2; N-terminal editing domain, residues 1-136 of ThrRS-2, untagged, expressed in E. coli, homodimer
T5 sequence (Q9YFY3 1-136): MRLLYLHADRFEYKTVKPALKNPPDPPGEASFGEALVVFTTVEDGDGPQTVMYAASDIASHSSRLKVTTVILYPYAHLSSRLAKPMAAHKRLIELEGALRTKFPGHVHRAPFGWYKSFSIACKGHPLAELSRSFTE
Kind of data set: ITC (also crystal structure). The class given is binding.

Data set [6] concerns the molecule itself. The data set can be described thus: crystal structure; co-crystals with the substrate analogues L-Ser3AA or L-Thr3AA, grown at 4 °C; ApNTD in P4(1)2(1)2 with one monomer in the asymmetric unit (dimer by the crystallographic twofold); MjNTD in C2 and P2(1) with six and four monomers in the asymmetric unit.

T2 sequence (Q9UZ14 1-143 K121M): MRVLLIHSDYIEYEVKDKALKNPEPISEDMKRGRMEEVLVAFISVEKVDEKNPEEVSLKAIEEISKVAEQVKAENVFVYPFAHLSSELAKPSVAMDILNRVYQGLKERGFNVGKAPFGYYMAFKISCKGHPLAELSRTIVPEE
T1 sequence (Q9YFY3 1-136 K116M): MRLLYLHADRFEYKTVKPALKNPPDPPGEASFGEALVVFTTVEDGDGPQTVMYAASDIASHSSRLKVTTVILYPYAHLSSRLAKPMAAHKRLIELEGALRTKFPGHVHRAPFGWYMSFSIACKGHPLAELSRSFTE
T4 sequence (Q9YFY3 1-136 Y115A): as the sequence (Q9YFY3 1-136 K116M) above, with Y115A, M116K counted along it
T3 sequence (Q9YFY3 1-136 E129A): as the sequence (Q9YFY3 1-136 K116M) above, with M116K, E129A counted along it

“N-terminal editing domain (NTD) of threonyl-tRNA synthetase from Aeropyrum pernix (domain or fragment)” yielded a stoichiometry N in data set [1] of 2.

As for `C[C@@H](O)[C@H](N)C(=O)N[C@H]1[C@@H](O)[C@H](n2cnc3c(N)ncnc32)O[C@@H]1CO` [L-threonyl-3′-aminoadenosine], the X-ray crystal structure result at ApNTD [2] was “K116M mutant of ApNTD with L-Ser3AA and L-Thr3AA”; at PabNTD, “We solved the crystal structure of K121M mutant of PabNTD”; on ApNTD [3] it was “E129A mutant also showed a loosening of interactions upon L-Thr3AA binding”; at ApNTD [4] it was “no such loosening was observed in the case of Y115A”. For the same molecule, the Kd at ApNTD [5] is 13.4 ± 2.9 µM.

Regarding `Nc1ncnc2c1ncn2[C@@H]1O[C@H](CO)[C@@H](NC(=O)[C@@H](N)CO)[C@H]1O` [L-seryl-3′-aminoadenosine], at PabNTD, the X-ray crystal structure entry is listed as “We solved the crystal structure of K121M mutant of PabNTD”. Moreover, binding on ApNTD [5] was characterised by a dissociation constant (Kd) of 1 ± 0.3 µM.

B1: N-terminal editing domain (NTD) of threonyl-tRNA synthetase from Methanococcus jannaschii (domain or fragment, UniProt Q58597 5-143, looked up)
chain: LIHSDYLEFEAKEKTKIAEETENLKGKLDECLACFIAVEREDENNPEGTAIGAVEEIEKVANQLKVNNIVVYPYAHLSSDLSSPETAVKVLKDIESILKERGYNVLRAPFGWYKAFKISCKGHPLSELSRKIVAKEEKK
notes: N-terminal editing domain of ThrRS of Methanococcus jannaschii, residues 5-143; untagged construct (stop codon in the reverse primer); Crystallised with the substrate analogues L-Ser3AA or L-Thr3AA; also called MjNTD; MjNTD wild type
With B1, the “stoichiometry N” value in data set [6] was 2.
